The source of these data is patent publication US10899738B2 (THE REGENTS OF THE UNIVERSITY OF MICHIGAN, priority 2016, dated 2021).

The structures appear in SMILES notation. Like-named read-outs stand apart in the source and are kept apart here.

The target of one assay is menin protein (Homo sapiens (Human), UniProt O00255). Kind of assay: biochemical. It counts as binding. Conditions: FP competitive binding; menin protein 4 nM, FAM-MM2 probe 2 nM; read-out: Menin Binding Affinity IC50. In short, it runs like this: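 Test compounds displaced FAM-MM2 (2 nM) from 4 nM menin after 30 min equilibration at room temperature in PBS buffer containing bovine γ-globulin, 4% DMSO and Triton X-100. Binding was followed by fluorescence polarization. Competition curves were fitted by nonlinear regression to give IC50 and Ki.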

Assay [1] can be described thus: Cell growth inhibition, CellTiter-Glo Luminescent Cell Viability Assay. Type of assay: cell-based. In short, it runs like this:
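Cells seeded at 2,000/well with serially diluted compound and cultured 4 days at 37 °C, 5% CO2. Viability read by CellTiter-Glo luminescence; IC50 derived from dose-response.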

The mark [2] stands for this setting: MOLM-13, 96 h, read-out: Cell Growth Inhibition IC50 (μM) MOLM13, MOLM13 cells, 4 days, CellTiter-Glo.
Setting [3] is: MV4-11, 96 h, read-out: Cell Growth Inhibition IC50 (μM) MV4, 11, MV4, 11 cells, 4 days, CellTiter-Glo.
Where [4] appears, read: MOLM-13, 96 h, MOLM13 cells, 4 days, CellTiter-Glo, read-out: Cell Growth Inhibition IC50 (μM) MOLM13.
Setting [5] is: MV4-11, 96 h, MV4, 11 cells, 4 days, CellTiter-Glo, read-out: Cell Growth Inhibition IC50 (μM) MV4, 11.

menin protein, sequence (O00255 whole entry): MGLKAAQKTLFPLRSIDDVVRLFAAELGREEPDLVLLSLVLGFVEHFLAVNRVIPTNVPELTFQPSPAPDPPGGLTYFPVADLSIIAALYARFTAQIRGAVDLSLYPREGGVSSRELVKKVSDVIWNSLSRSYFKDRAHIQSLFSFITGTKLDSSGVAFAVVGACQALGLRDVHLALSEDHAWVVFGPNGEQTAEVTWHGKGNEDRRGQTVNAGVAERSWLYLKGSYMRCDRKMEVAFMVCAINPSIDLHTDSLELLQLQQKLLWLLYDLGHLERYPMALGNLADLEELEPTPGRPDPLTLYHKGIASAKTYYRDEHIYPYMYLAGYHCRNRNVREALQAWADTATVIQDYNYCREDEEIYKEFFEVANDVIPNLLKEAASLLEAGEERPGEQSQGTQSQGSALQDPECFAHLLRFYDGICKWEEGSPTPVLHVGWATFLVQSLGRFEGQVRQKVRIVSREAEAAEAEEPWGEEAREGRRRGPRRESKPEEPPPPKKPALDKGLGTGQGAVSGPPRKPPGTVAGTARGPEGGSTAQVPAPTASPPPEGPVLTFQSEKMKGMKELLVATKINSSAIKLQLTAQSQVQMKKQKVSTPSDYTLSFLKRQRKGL

As to `CCN1Cc2ccccc2C(C2CCCC2)(C2CCN(CC3CN(c4ccc(S(=O)(=O)C5CC5)cc4)C3)C(C)C2)C1` (stereo not drawn) [compound 95, 4-cyclopentyl-4-(1-((1-(4-(cyclopropylsulfonyl)phenyl)azetidin-3-yl)methyl)-2-methylpiperidin-4-yl)-2-ethyl-1,2,3,4-tetrahydroisoquinoline], the IC50 (commonly the concentration needed to halve the response being measured) is 24 nM on menin protein; 1.9 µM in assay [1] (MOLM13 cells, 4 days, CellTiter-Glo, read-out: Cell Growth Inhibition IC50 (μM) MOLM13); 1.8 µM in assay [1] (MV4, 11 cells, 4 days, CellTiter-Glo, read-out: Cell Growth Inhibition IC50 (μM) MV4, 11).

As for `CNC(=O)O[C@H]1CCC[C@@H]1C(C#N)(c1ccccc1)C1CCN(CC2CN(c3ccc(C(F)(F)F)cc3)C2)CC1` (mixture of isomers) [compound 367, rac-(1S,2R)-2-(cyano(phenyl)(1-((1-(4-(trifluoromethyl)phenyl)azetidin-3-yl)methyl)piperidin-4-yl)methyl)cyclopentyl methylcarbamate], the values for the IC50 (at menin protein; in assay [1] (setting [2]); in assay [1] (setting [3])) were 30 nM, 2.96 µM and 1.66 µM, respectively.

On to `N#CC(c1ccccc1)(C1CCN(CC2CN(c3ccc(S(=O)(=O)c4ccccc4)cc3)C2)CC1)[C@H]1CCC[C@@H]1OC(N)=O` (mixture of isomers) [compound 223, rac-(1S,2R)-2-(cyano(phenyl)(1-((1-(4-(phenylsulfonyl)phenyl)azetidin-3-yl)methyl)piperidin-4-yl)methyl)cyclopentyl carbamate], for which the IC50 at menin protein was 14 nM; in assay [1] (setting [2]), 0.49 µM; in assay [1] (setting [3]), 0.29 µM.

Consider `CNC(=O)O[C@H]1CCC[C@@H]1C(Cn1ccnc1C)(c1cccc(F)c1)C1CCN(CC2CN(c3ccc(S(=O)(=O)c4cnn(C)c4)cc3)C2)CC1` (mixture of isomers) [compound 411, rac-(1S,2R)-2-(1-(3-fluorophenyl)-2-(2-methyl-1H-imidazol-1-yl)-1-(1-((1-(4-((1-methyl-1H-pyrazol-4-yl)sulfonyl)phenyl)azetidin-3-yl)methyl)piperidin-4-3-yl)ethyl)cyclopentyl methylcarbamate], for which the IC50 was found to be 3 nM at menin protein, 0.016 µM in assay [1] (setting [2]) and 0.003 µM in assay [1] (setting [3]).

Consider `CNC(=O)O[C@H]1CCC[C@@H]1C(Cn1ccnc1)(c1cccc(F)c1)C1CCN(CC2CN(c3ccc(C#N)cc3)C2)CC1` (mixture of isomers) [compound 390, rac-(1S,2R)-2-(1-(1-((1-(4-cyanophenyl)azetidin-3-yl)methyl)piperidin-4-yl)-1-(3-fluorophenyl)-2-(1H-imidazol-1-yl)ethyl)cyclopentyl methylcarbamate], for which the IC50 at menin protein was 5 nM; in assay [1] (setting [2]) it was 0.082 µM; in assay [1] (setting [3]), 0.021 µM.

Regarding `O=S(=O)(c1ccncc1)c1ccc(N2CC(CN3CCC(C4(C5CCCC5)CNCc5ccccc54)CC3)C2)cc1` (stereo not drawn) [compound 51, 4-cyclopentyl-4-(1-((1-(4-(pyridin-4-ylsulfonyl)phenyl)azetidin-3-yl)methyl)piperidin-4-yl)-1,2,3,4-tetrahydroisoquinoline], the IC50 at menin protein is 8 nM; in assay [1] (setting [4]), 1.46 µM; in assay [1] (setting [5]), 0.67 µM.

Turning to `CNC(=O)O[C@H]1CCC[C@@H]1C(Cn1ccnc1C)(c1ccccc1)C1CCN(CC2CN(c3ccc(C#N)cc3)C2)CC1` (mixture of isomers) [compound 406, rac-(1S,2R)-2-(1-(1-((1-(4-cyanophenyl)azetidin-3-yl)methyl)piperidin-4-yl)-2-(2-methyl-1H-imidazol-1-yl)-1-phenylethyl)cyclopentyl methylcarbamate], the IC50 on menin protein is 3 nM; in assay [1] (setting [2]), 0.009 ± 0.0004 µM; in assay [1] (setting [3]) it was 0.004 ± 0.002 µM.

On to `CNC(=O)O[C@H]1CCC[C@@H]1C(C#N)(c1ccccc1)C1CCN(CC2CN(c3ccc(S(=O)(=O)c4ccn(C)n4)cc3)C2)CC1` (mixture of isomers) [compound 230, rac-(1S,2R)-2-(cyano(1-((1-(4-((1-methyl-1H-pyrazol-3-yl)sulfonyl)phenyl)azetidin-3-yl)methyl)piperidin-4-yl)(phenyl)methyl) cyclopentyl methylcarbamate], for which the IC50 at menin protein was determined as 7 nM; in assay [1] (setting [2]), 0.25 µM; in assay [1] (setting [3]), 0.092 µM.

Regarding `CN1Cc2ccccc2C(C2CCCC2)(C2CCN(CC3CN(c4ccc(C#N)cc4)C3)CC2)C1` (stereo not drawn) [compound 45, 4-(3-((4-(4-cyclopentyl-2-methyl-1,2,3,4-tetrahydroisoquinolin-4-yl)piperidin-1-yl)methyl)azetidin-1-yl)benzonitrile], the IC50 at menin protein was 27 nM; in assay [1] (setting [4]) it was 5 µM; in assay [1] (setting [5]) it was 0.845 ± 0.436 µM.

Turning to `CCS(=O)(=O)c1ccc(N2CC(CN3CCC(C4(C5CCCC5)NCCc5ccccc54)CC3)C2)cc1` (stereo not drawn) [compound 133, 1-cyclopentyl-1-(1-((1-(4-(ethylsulfonyl)phenyl)azetidin-3-yl)methyl)piperidin-4-yl)-1,2,3,4-tetrahydroisoquinoline], the IC50 at menin protein came out at 30 nM; in assay [1] (setting [4]) it was 2.9 ± 0.8 µM; in assay [1] (setting [5]), 1.7 ± 1 µM.

Take `CNC(=O)N[C@H]1CCC[C@@H]1C1(C2CCN(CC3CN(c4ccc(S(=O)(=O)C5CC5)cc4)C3)CC2)CN(C)Cc2ccccc21` (mixture of isomers) [compound 283, rac-1-((1S,2R)-2-(4-(1-((1-(4-(cyclopropylsulfonyl)phenyl)azetidin-3-yl)methyl)piperidin-4-yl)-2-methyl-1,2,3,4-tetrahydroisoquinolin-4-yl)cyclopentyl)-3-methylurea]: the IC50 on menin protein worked out at 10 nM; in assay [1] (setting [2]) it was 0.53 µM; in assay [1] (setting [3]) it was 0.21 µM.

For `O=S(=O)(CC1CCC1)c1ccc(N2CC(CN3CCC(C4(C5CCCC5)NCCc5ccccc54)CC3)C2)cc1` (stereo not drawn) [compound 86, 1-(1-((1-(4-((cyclobutylmethyl)sulfonyl)phenyl)azetidin-3-yl)methyl)piperidin-4-yl)-1-cyclopentyl-1,2,3,4-tetrahydroisoquinoline], the IC50 was determined as 55 nM on menin protein, 1.2 ± 0.5 µM in assay [1] (setting [4]) and 0.864 ± 0.017 µM in assay [1] (setting [5]).

As for `CNC(=O)O[C@@H]1CCC[C@H]1[C@@](C#N)(c1ccccc1)C1CCN(CC2CN(c3ccc(S(=O)(=O)c4ccncc4)cc3)C2)CC1` (mixture of isomers) [compound 354, rac-(1R,2S)-2-((R)-cyano(phenyl)(1-((1-(4-(pyridin-4-ylsulfonyl)phenyl)azetidin-3-yl)methyl)piperidin-4-yl)methyl)cyclopentyl methylcarbamate], the IC50 was 62 nM at menin protein, 4.7 µM in assay [1] (setting [2]) and 1.3 µM in assay [1] (setting [3]).

On to `CNC(=O)O[C@H]1CCC[C@@H]1[C@](C#N)(c1ccccc1)C1CCN(CC2CN(c3ccc(S(=O)(=O)c4ccncc4)cc3)C2)CC1` (mixture of isomers) [compound 353, rac-(1S,2R)-2-((S)-cyano(phenyl)(1-((1-(4-(pyridin-4-ylsulfonyl)phenyl)azetidin-3-yl)methyl)piperidin-4-yl)methyl)cyclopentyl methylcarbamate], for which the IC50 stood at 6 nM on menin protein, 0.25 µM in assay [1] (setting [2]) and 0.075 µM in assay [1] (setting [3]).

Turning to `N#Cc1ccc(OCCCN2CCC(C3(C4CCCC4)CNCc4ccccc43)CC2)cc1` (stereo not drawn) [compound 19, 4-(3-(4-(4-cyclopentyl-1,2,3,4-tetrahydroisoquinolin-4-yl)piperidin-1-yl)propoxy)benzonitrile], the IC50 on menin protein stood at 61 nM; in assay [1] (setting [2]) it was 7.3 µM; in assay [1] (setting [3]), 1.6 ± 0.1 µM.
